Experimental data: ChEMBL document CHEMBL4004888, “New derivatives of quinoline-4-carboxylic acid with antiplasmodial activity” (Bioorg Med Chem, 2017)

What was measured:
L6 = assay: Cytotoxicity against rat L6 cells after 70 hrs by alamar blue staining based fluorometric assay; type: cell-based; details: L6, 70 h
Plasmodium falciparum [1] = assay: Antiplasmodial activity against erythrocytic stage of chloroquine-sensitive Plasmodium falciparum NF54 assessed as reduction in [3H]hypoxanthine incorporation after 48 hrs by liquid scintillation counting method; type: functional
[2] = Selectivity index, ratio of IC50 for rat L6 cells to IC50 for erythrocytic stage of chloroquine-sensitive Plasmodium falciparum NF54; type: toxicity; details: read-out: Ratio IC50
Plasmodium berghei [3] = assay: Antiplasmodial activity against erythrocytic stage of GFP-fused Plasmodium berghei ANKA infected in NMRI mouse assessed as mouse survival days at 10 mg/kg, ip for 4 days measured up to 30 days post infection (reference value: 4 day); type: functional
[4] = Selectivity index, ratio of IC50 for rat L6 cells to IC50 for erythrocytic stage of chloroquine/pyrimethamine-resistant Plasmodium falciparum K1; type: toxicity; details: L6 cells versus erythrocytic stage Plasmodium falciparum K1, read-out: Ratio IC50
Plasmodium falciparum [5] = assay: Antiplasmodial activity against erythrocytic stage of chloroquine/pyrimethamine-resistant Plasmodium falciparum K1 assessed as reduction in [3H]hypoxanthine incorporation after 48 hrs by liquid scintillation counting method; type: functional
Plasmodium berghei [6] = assay: Antiplasmodial activity against erythrocytic stage of GFP-fused Plasmodium berghei ANKA infected in NMRI mouse assessed as mouse survival days at 50 mg/kg, ip for 4 days measured up to 30 days post infection (reference value: 4 day); type: functional
Plasmodium berghei [7] = assay: Antiplasmodial activity against erythrocytic stage of GFP-fused Plasmodium berghei ANKA infected in NMRI mouse assessed as reduction in parasitaemia at 50 mg/kg, ip for 4 days measured at 24 hrs post last dose by FACS analysis relative to control; type: functional; set-up: scale not given: the % may be the effect or the level left

Compound | IC50 (Plasmodium falciparum [1]) [µM] | IC50 (L6; read-out: IC50) [µM] | selectivity ratio [2] | MSD (Plasmodium berghei [3]) [days] | selectivity ratio [4] | IC50 (Plasmodium falciparum [5]) [µM] | MSD (Plasmodium berghei [6]) [days] | Activity (Plasmodium berghei [7]) [%] | IC50 (L6) [µM]
O=C(c1cc(-c2ccc(CN3CCOCC3)cc2)nc2ccc(F)cc12)N1CCNCC1 | 7.78 | 105 | 13.5 |  |  |  |  |  | 
CCN(CC)CCCC(C)Nc1ccnc2cc(Cl)ccc12 (stereo unspecified) [CHLOROQUINE] |  |  |  | 20 |  |  |  |  | 
O=C(NCCN1CCCC1)c1cc(-c2ccc(CN3CCOCC3)cc2)nc2ccc(F)cc12 [CABAMIQUINE] | 0.00013 | 28.5 | 219000 |  | 129000 | 0.00022 |  |  | 
O=C(NCCN1CCN(c2ccccc2)CC1)c1cc(-c2ccc(CN3CCOCC3)cc2)nc2ccc(F)cc12 | 0.01 | 3.94 | 394 |  | 563 | 0.007 | 4 | 17.1 | 
CC(C)(C)OC(=O)N1CCN(C(=O)c2cc(-c3ccc(CN4CCOCC4)cc3)nc3ccc(F)cc23)CC1 | 13.8 | 29.6 | 2.14 |  |  |  |  |  | 
C[C@@H]1CC[C@H]2[C@@H](C)C(=O)O[C@@H]3O[C@@]4(C)CC[C@@H]1[C@]32OO4 [ARTEMISININ] |  |  |  |  | 70300 | 0.0064 |  |  | 
CCN(CC)C(=O)c1cc(-c2ccc(CN3CCOCC3)cc2)nc2ccc(F)cc12 | 12.5 | 121 | 9.68 |  |  |  |  |  | 
Fc1ccc2nc(-c3ccc(CN4CCOCC4)cc3)cc(CN3CCN(c4ccccc4)CC3)c2c1 | 13.3 | 31.9 | 2.4 |  |  |  |  |  | 
N=C(N)N1CCN(C(=O)c2cc(-c3ccc(CN4CCOCC4)cc3)nc3ccc(F)cc23)CC1 | 49.3 | 210 | 4.26 |  |  |  |  |  | 
COc1cc([C@@H]2c3cc4c(cc3[C@H](O)[C@H]3COC(=O)[C@H]23)OCO4)cc(OC)c1OC [PODOFILOX] |  |  |  |  |  |  |  |  | 0.012
CC(C)(C)OC(=O)N1CCN(CCNC(=O)c2cc(-c3ccc(CN4CCOCC4)cc3)nc3ccc(F)cc23)CC1 | 0.00021 | 13.5 | 64300 |  | 15500 | 0.00087 | 8.3 | 98.1 | 

Further lines, with some results ahead:

IC50 (Plasmodium falciparum [1]) [µM] | Compound | IC50 (L6; read-out: IC50) [µM] | selectivity ratio [2] | MSD (Plasmodium berghei [3]) [days] | selectivity ratio [4] | IC50 (Plasmodium falciparum [5]) [µM] | MSD (Plasmodium berghei [6]) [days] | Activity (Plasmodium berghei [7]) [%] | IC50 (L6) [µM]
4.92 | O=C(c1cc(-c2ccc(CN3CCOCC3)cc2)nc2ccc(F)cc12)N1CCN(c2ccccc2)CC1 | 24.6 | 5 |  |  |  |  |  | 
0.59 | COc1ccc(NC(=O)c2cc(-c3ccc(CN4CCOCC4)cc3)nc3ccc(F)cc23)cc1 | 6.77 | 11.5 |  |  |  |  |  | 
2.19 | Fc1ccc2nc(-c3ccc(CN4CCOCC4)cc3)cc(CN3CCNCC3)c2c1 | 14.5 | 6.62 |  |  |  |  |  | 
1.09 | CN(C)c1ccc(NC(=O)c2cc(-c3ccc(CN4CCOCC4)cc3)nc3ccc(F)cc23)cc1 | 12.4 | 11.4 |  |  |  |  |  | 
6.73 | O=C(c1cc(-c2ccc(CN3CCOCC3)cc2)nc2ccc(F)cc12)N1CCN(C(=O)c2cc(-c3ccc(CN4CCOCC4)cc3)nc3ccc(F)cc23)CC1 | 128 | 19 |  |  |  |  |  | 
5.08 | CN1CCN(C(=O)c2cc(-c3ccc(CN4CCOCC4)cc3)nc3ccc(F)cc23)CC1 | 135 | 26.6 |  |  |  |  |  | 
0.21 | O=C(Nc1ccc([N+](=O)[O-])cc1)c1cc(-c2ccc(CN3CCOCC3)cc2)nc2ccc(F)cc12 | 13.8 | 65.7 |  |  |  |  |  | 
1.09 | CN1CCN(CCNC(=O)c2cc(-c3ccc(CN4CCOCC4)cc3)nc3ccc(F)cc23)CC1 | 82 | 75.2 |  |  |  |  |  | 
0.53 | O=C(NCCN1CCNCC1)c1cc(-c2ccc(CN3CCOCC3)cc2)nc2ccc(F)cc12 | 54.5 | 103 |  |  |  |  |  | 
1.76 | O=C(Nc1ccccc1)c1cc(-c2ccc(CN3CCOCC3)cc2)nc2ccc(F)cc12 | 17.7 | 10.1 |  |  |  |  |  | 
1.98 | CN1CCN(Cc2cc(-c3ccc(CN4CCOCC4)cc3)nc3ccc(F)cc23)CC1 | 17.7 | 8.94 |  |  |  |  |  | 
